Measurements: EP4603105A1, “PHARMACEUTICAL COMPOSITION CONTAINING CYCLIC COMPOUND HAVING SELECTIVE KRAS INHIBITORY EFFECT AGAINST HRAS AND NRAS” (CHUGAI SEIYAKU KABUSHIKI KAISHA, priority 2022, dated 2024)
Read-outs that look alike come from different tables or passages of the source.

How the values were obtained:
[1] = system: human lung cancer strain NCI-H441; experiment: NCI-H441 cell proliferation inhibitory activity (CellTiter-Glo, 4 days); assay type: cell-based; details: read-out: NCl-H441 IC50
Method in brief: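 Signal came from […] measured per well once the reagent was added. Beforehand, cells were cultured at 37°C and 5% carbon dioxide on a compound series serially diluted in dimethyl sulfoxide.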

HRAS wild-type protein = HRAS wild-type protein (Homo sapiens, UniProt P01112); experiment: Binding to HRAS by surface plasmon resonance (SPR), KD and KD ratio to KRAS
Method in brief: (§1)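 Recombinant RAS proteins bearing a biotinylated Avi tag and loaded with GDP served as the captured ligand, recaptured fresh every cycle. Binding responses were referenced to an uncoated surface and a buffer-only blank cycle. Dissociation constants were obtained by 1:1 model fitting at 30°C.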

[2] = molecular target: GDP-bound KRAS wild-type protein (Homo sapiens, UniProt P01116); experiment: Binding to KRAS by surface plasmon resonance (SPR), dissociation constant KD
Method in brief: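 Running buffer contained 10 µM GDP and 10 mM MgCl2 to keep RAS in the GDP state, with 4% DMSO at pH 7.4. Compounds were flowed at 100 µL/min in 75 s steps of rising concentration over captured biotin-Avi RAS at 30°C. Sensorgrams were fitted 1:1 for KD.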

[3] = molecular target: GDP-bound NRAS wild-type protein (Homo sapiens, UniProt P01111); experiment: Binding to NRAS by surface plasmon resonance (SPR), KD and KD ratio to KRAS
Method in brief: as §1

[4] = ratio of KD for HRAS wild-type protein to KD for KRAS
[5] = ratio of KD for GDP-bound NRAS wild-type protein to KD for KRAS
[6] = 50% proliferation inhibitory concentration, four days
[7] = ratio of KD with respect to HRAS wild-type protein to KD with respect to KRAS
[8] = Single Cycle Kinetics, 1:1 binding model
[9] = ratio of KD with respect to GDP-bound NRAS wild-type protein to KD with respect to KRAS

Chain of GDP-bound NRAS wild-type protein (P01111 whole entry): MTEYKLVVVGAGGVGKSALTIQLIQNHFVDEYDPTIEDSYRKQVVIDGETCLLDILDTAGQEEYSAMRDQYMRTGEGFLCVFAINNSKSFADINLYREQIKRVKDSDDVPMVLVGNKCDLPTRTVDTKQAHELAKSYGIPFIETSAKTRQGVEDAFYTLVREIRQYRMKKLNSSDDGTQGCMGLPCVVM
Chain of GDP-bound KRAS wild-type protein (P01116 1-188 isoform P01116-2): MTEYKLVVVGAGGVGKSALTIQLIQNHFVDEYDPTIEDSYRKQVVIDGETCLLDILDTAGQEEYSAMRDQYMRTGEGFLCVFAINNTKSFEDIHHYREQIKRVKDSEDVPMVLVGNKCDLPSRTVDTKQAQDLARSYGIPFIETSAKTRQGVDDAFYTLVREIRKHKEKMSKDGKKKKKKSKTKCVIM
Chain of HRAS wild-type protein (P01112 whole entry): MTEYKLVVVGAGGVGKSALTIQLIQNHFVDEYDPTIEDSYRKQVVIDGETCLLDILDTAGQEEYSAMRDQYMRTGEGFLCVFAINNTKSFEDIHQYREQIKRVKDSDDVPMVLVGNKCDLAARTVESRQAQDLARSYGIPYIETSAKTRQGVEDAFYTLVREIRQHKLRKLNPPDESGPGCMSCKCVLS

Compound | IC50 ([1]; NCI-H441 cells, 4 days) [nM] | HRAS /KRAS (HRAS wild-type protein; [4]) | Kd ([2]; 1:1 binding model) [nM] | NRAS /KRAS [3, 5] | IC50 [1, 6] [nM] | HRAS /KRAS (HRAS wild-type protein; [7]) | Kd [2, 8] [nM] | NRAS /KRAS [3, 9] | Kd ([2]; Single Cycle Kinetics) [nM]
CCC(CC)[C@H]1C(=O)N(C)[C@H](C(=O)N(C)C)CC(=O)N(C)[C@@H](COC)C(=O)N[C@@H]([C@@H](C)CC)C(=O)N(C)CC(=O)N(C)[C@H]2C/C=C\CCN(C2=O)[C@@H](Cc2ccc(C(F)(F)F)cc2)C(=O)N(C)CC(=O)N[C@@H](CCc2ccc(Cl)c(Cl)c2)C(=O)N2C[C@H](OC3CCCC3)C[C@H]2C(=O)NC2(CC(C)(C)C2)C(=O)N1C [PP2648] | 68.5 | A (a compound having 10 or more and less than 20 is denoted as A) | 0.85 | A (a compound having 10 or more and less than 20 is denoted as A) |  |  |  |  | 
CCC[C@H]1C(=O)N[C@@H](CC(C)C)C(=O)N(CCOC)CC(=O)N(C)[C@H]2C/C=C\CCN(C2=O)[C@@H](Cc2ccc(C)cc2)C(=O)N(C)CC(=O)N[C@@H](CCc2cc(F)c(C(F)(F)F)c(F)c2)C(=O)N2C[C@H](OCC)C[C@H]2C(=O)NC2(CCC2)C(=O)N(C)[C@@H](C2CCCC2)C(=O)N(C)[C@H](C(=O)N(C)C)CC(=O)N1C [PP2541] | 374 | B (a compound having 3 or more and less than 10 is denoted as B) | 4.9 | A (a compound having 10 or more and less than 20 is denoted as A) |  |  |  |  | 
CCO[C@@H]1C[C@H]2C(=O)NC3(CCC3)C(=O)N(C)[C@@H](C3CCCC3)C(=O)N(C)[C@H](C(=O)N3CCOCC3)CC(=O)N(C)[C@@H](Cc3ccsc3)C(=O)N[C@@H]([C@@H](C)CC)C(=O)N(C)CC(=O)N(C)[C@H]3CCCCCN(C3=O)[C@@H](Cc3ccc(F)cc3)C(=O)N(C)CC(=O)N[C@@H](CCc3cc(F)c(C(F)(F)F)c(F)c3)C(=O)N2C1 [PP1184] |  |  |  |  | 91.9 | B (a compound having 3 or more and less than 10 is denoted as B) | 0.16 | B (a compound having 3 or more and less than 10 is denoted as B) | 
CCC[C@H]1C(=O)N[C@@H]([C@@H](C)CC)C(=O)N2CC[C@H]2C(=O)N(C)[C@H]2C/C(F)=C\CCN(C2=O)[C@@H](Cc2ccc(C(F)(F)F)cc2)C(=O)N(C)CC(=O)N[C@@H](CCc2ccc(C(F)(F)F)c(OC)c2)C(=O)N2C[C@H](OCC)C[C@H]2C(=O)N(C)C2(CCC2)C(=O)N(C)[C@@H](C2CCCC2)C(=O)N(C)[C@H](C(=O)N(C)C)CC(=O)N1C [PP3529] | 7.1 | B (a compound having 3 or more and less than 10 is denoted as B) |  | B (a compound having 3 or more and less than 10 is denoted as B) |  |  |  |  | 0.11
CCO[C@@H]1C[C@H]2C(=O)NC3(CC(C)(C)C3)C(=O)N(C)[C@@H](C3CCCC3)C(=O)N(C)[C@H](C(=O)N(C)C)CC(=O)N(C)[C@@H]([C@@H](C)OC)C(=O)N[C@@H]([C@@H](C)CC)C(=O)N3CCC[C@H]3C(=O)N(C)[C@H]3C/C=C\CCN(C3=O)[C@@H](Cc3ccc(C)cc3)C(=O)N(C)CC(=O)N[C@@H](CCc3ccc(C(F)(F)F)c(Cl)c3)C(=O)N2C1 [PP3215] | 109 | A (a compound having 10 or more and less than 20 is denoted as A) |  | A (a compound having 10 or more and less than 20 is denoted as A) |  |  |  |  | 0.68
CCO[C@@H]1C[C@H]2C(=O)NC3(CCCC3)C(=O)N(C)[C@@H](C3CCCC3)C(=O)N(C)[C@H](C(=O)N3CCOCC3)CC(=O)N(C)[C@@H](CC)C(=O)N[C@@H]([C@@H](C)CC)C(=O)N(C)CC(=O)N(C)[C@H]3C[C@@H](C)[C@@H](C)CN(C3=O)[C@@H](Cc3ccc(C(F)(F)F)cc3)C(=O)N(C)CC(=O)N[C@@H](CCc3ccc(C(F)(F)F)c(Cl)c3)C(=O)N2C1 [PP1359] |  |  |  |  | 3.2 | B (a compound having 3 or more and less than 10 is denoted as B) | 0.068 | A (a compound having 10 or more and less than 20 is denoted as A) | 
CC[C@H](C)[C@@H]1NC(=O)[C@H](CC)N(C)C(=O)C[C@@H](C(=O)N(C)C)N(C)C(=O)[C@H](C2CCCC2)N(C)C(=O)C2(CCC2)NC(=O)[C@H](C)NC(=O)[C@H](CCc2cc(F)c(C(F)(F)F)c(F)c2)NC(=O)CN(C)C(=O)[C@H](Cc2ccc(C(F)(F)F)cc2)N2CC/C=C\C[C@@H](C2=O)N(C)C(=O)CN(C)C1=O [PP1140] |  |  |  |  | 1780 | A (a compound having 10 or more and less than 20 is denoted as A) | 0.15 | A (a compound having 10 or more and less than 20 is denoted as A) | 
CC[C@H](C)[C@@H]1NC(=O)[C@H](CC2CCC2)N(C)C(=O)C[C@@H](C(=O)N(C)C)N(C)C(=O)[C@H](C2CCCC2)N(C)C(=O)C2(CCCC2)NC(=O)[C@@H]2CCCN2C(=O)[C@H](CCc2cc(F)c(C(F)(F)F)c(F)c2)NC(=O)CN(C)C(=O)[C@H](Cc2ccc(C(F)(F)F)cc2)N2C[C@H](C)CC[C@@H](C2=O)N(C)C(=O)CN(C)C1=O [PP1386] |  |  |  |  | 4.2 | B (a compound having 3 or more and less than 10 is denoted as B) | 0.082 | B (a compound having 3 or more and less than 10 is denoted as B) | 
CCOC[C@H]1C(=O)N[C@@H]([C@@H](C)CC)C(=O)N(C)CC(=O)N(C)[C@H]2C/C=C\CCN(C2=O)[C@@H](Cc2ccc(C)cc2)C(=O)N(C)CC(=O)N[C@@H](CCc2ccc(C(F)(F)F)c(Cl)c2)C(=O)N2C[C@H](OCC)C[C@H]2C(=O)NC2(CC(C)(C)C2)C(=O)N(C)[C@@H](C2CCCC2)C(=O)N(C)[C@H](C(=O)N(C)CC)CC(=O)N1C [PP2401] | 5.3 | A (a compound having 10 or more and less than 20 is denoted as A) | 0.12 | A (a compound having 10 or more and less than 20 is denoted as A) |  |  |  |  | 
CCC[C@H]1C(=O)N[C@@H]([C@@H](C)CC)C(=O)N(C2CC2)CC(=O)N(C)[C@H]2C/C=C\CCN(C2=O)[C@@H](Cc2ccc(C(F)F)cc2)C(=O)N(C)CC(=O)N[C@@H](CCc2cc(F)c(C(F)(F)F)c(F)c2)C(=O)N2C[C@H](OCC)C[C@H]2C(=O)NC2(CC(C)(C)C2)C(=O)N(C)[C@@H](C(CC)CC)C(=O)N(C)[C@H](C(=O)N(C)C)CC(=O)N1C [PP2527] | 31 | A (a compound having 10 or more and less than 20 is denoted as A) | 0.65 | AA (a compound having 20 or more is denoted as AA) |  |  |  |  | 
CCO[C@@H]1C[C@H]2C(=O)NC3(CC(C)(C)C3)C(=O)N(C)[C@@H](C3CCCC3)C(=O)N(C)[C@H](C(=O)N(C)CC)CC(=O)N(C)[C@@H]([C@H](C)OC)C(=O)N[C@@H]([C@@H](C)CC)C(=O)N3CCC[C@H]3C(=O)N(C)[C@H]3C/C=C\CCN(C3=O)[C@@H](Cc3ccc(C(F)(F)F)cc3)C(=O)N(C)CC(=O)N[C@@H](CCc3ccc(C(F)(F)F)c(Cl)c3)C(=O)N2C1 [PP3224] | 55.4 | A (a compound having 10 or more and less than 20 is denoted as A) |  | A (a compound having 10 or more and less than 20 is denoted as A) |  |  |  |  | 1.9
C=C(C)C[C@H]1C(=O)N(C)[C@H](C(=O)N(C)C)CC(=O)N(C)[C@@H](CC(C)C)C(=O)N[C@@H]([C@@H](C)CC)C(=O)N(C)CC(=O)N(C)[C@H]2C/C=C\CCN(C2=O)[C@@H](Cc2ccc(C)cc2)C(=O)N(C)CC(=O)N[C@@H](CCc2cc(F)c(C(F)(F)F)c(F)c2)C(=O)N2C[C@H](OCC)C[C@H]2C(=O)N(C)C2(CCC2)C(=O)N1C [PP3349] | 15.7 | A (a compound having 10 or more and less than 20 is denoted as A) |  | A (a compound having 10 or more and less than 20 is denoted as A) |  |  |  |  | 1.7
CCC[C@H]1C(=O)N[C@@H]([C@@H](C)CC)C(=O)N(C)CC(=O)N(C)[C@H]2C/C=C\CCN(C2=O)[C@@H](Cc2ccc(C(F)(F)F)cc2)C(=O)N(C)CC(=O)N[C@@H](CCc2ccc(Cl)c(Cl)c2)C(=O)N2C[C@H](OCC)C[C@H]2C(=O)NC2(CC(C)(C)C2)C(=O)N(C)[C@@H](CC2CCC2)C(=O)N(C)[C@H](C(=O)N(C)C)CC(=O)N1C [PP2766] | 26 | A (a compound having 10 or more and less than 20 is denoted as A) | 0.52 | A (a compound having 10 or more and less than 20 is denoted as A) |  |  |  |  | 
CCCOC[C@H]1C(=O)N[C@@H]([C@@H](C)CC)C(=O)N(C)CC(=O)N(C)[C@H]2C/C=C\CCN(C2=O)[C@@H](Cc2ccc(C)cc2)C(=O)N(C)CC(=O)N[C@@H](CCc2ccc(C(F)(F)F)c(Cl)c2)C(=O)N2C[C@@H](C)C[C@H]2C(=O)NC2(CC(C)(C)C2)C(=O)N(C)[C@@H](C2CCCC2)C(=O)N(C)[C@H](C(=O)N(C)C)CC(=O)N1C [PP2453] | 9.2 | A (a compound having 10 or more and less than 20 is denoted as A) | 0.09 | A (a compound having 10 or more and less than 20 is denoted as A) |  |  |  |  | 
CCC[C@H]1C(=O)N[C@@H](C2CCCC2)C(=O)N(C)CC(=O)N(C)[C@H]2C/C=C\CCN(C2=O)[C@@H](Cc2ccc(C(F)(F)F)cc2)C(=O)N(C)CC(=O)N[C@@H](CCc2ccc(C(F)(F)F)c(OC)c2)C(=O)N2CC3(CC3)C[C@H]2C(=O)N(C)C2(CCC2)C(=O)N(C)[C@@H]([C@@H](C)CC)C(=O)N(C)[C@H](C(=O)N(C)C)CC(=O)N1C [PP3315] | 7.2 | A (a compound having 10 or more and less than 20 is denoted as A) |  | A (a compound having 10 or more and less than 20 is denoted as A) |  |  |  |  | 0.92
